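Tested at 5 concentrations; 48 h exposure; 96-well plates; endpoints linearly interpolated, else capped at highest concentration. TGI: total growth inhibition.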
Tests used:
Experiment in all cases: NCI tumour cell line growth inhibition, 48 h
NCI-H226 lung = test system: NCI-H226 lung
CCRF-CEM leukemia = test system: CCRF-CEM leukemia
A498 renal = test system: A498 renal
SNB-75 CNS = test system: SNB-75 CNS
PC-3 prostate = test system: PC-3 prostate
SN12C renal = test system: SN12C renal
SR leukemia = test system: SR leukemia
KM12 colon = test system: KM12 colon
SW-620 colon = test system: SW-620 colon
EKVX NSCLC = test system: EKVX NSCLC
RXF 393 renal = test system: RXF 393 renal
MALME-3M melanoma = test system: MALME-3M melanoma
HOP-92 NSCLC = test system: HOP-92 NSCLC
HCT-116 colon = test system: HCT-116 colon
NCI-H23 lung = test system: NCI-H23 lung
CAKI-1 renal = test system: CAKI-1 renal
BT-549 breast = test system: BT-549 breast
OVCAR-8 ovarian = test system: OVCAR-8 ovarian
DU-145 prostate = test system: DU-145 prostate
OVCAR-4 ovarian = test system: OVCAR-4 ovarian
MDA-MB-231 breast = test system: MDA-MB-231 breast
HL-60(TB) leukemia = test system: HL-60(TB) leukemia
M14 melanoma = test system: M14 melanoma
T-47D breast = test system: T-47D breast
HT29 colon = test system: HT29 colon
TK-10 renal = test system: TK-10 renal
ACHN renal = test system: ACHN renal
IGROV1 ovarian = test system: IGROV1 ovarian
NCI/ADR-RES ovarian = test system: NCI/ADR-RES ovarian
A549 NSCLC = test system: A549 NSCLC
RPMI-8226 leukemia = test system: RPMI-8226 leukemia
SNB-19 CNS = test system: SNB-19 CNS
NCI-H522 lung = test system: NCI-H522 lung
HOP-62 NSCLC = test system: HOP-62 NSCLC
SK-MEL-28 melanoma = test system: SK-MEL-28 melanoma
OVCAR-3 ovarian = test system: OVCAR-3 ovarian
NCI-H460 lung = test system: NCI-H460 lung
MDA-N = test system: MDA-N
COLO 205 colon = test system: COLO 205 colon
HCT-15 colon = test system: HCT-15 colon
HS 578T breast = test system: HS 578T breast
UO-31 renal = test system: UO-31 renal
SK-OV-3 ovarian = test system: SK-OV-3 ovarian
OVCAR-5 ovarian = test system: OVCAR-5 ovarian
UACC-257 melanoma = test system: UACC-257 melanoma
MCF7 breast = test system: MCF7 breast
SF-268 CNS = test system: SF-268 CNS
U251 CNS = test system: U251 CNS
UACC-62 melanoma = test system: UACC-62 melanoma
SK-MEL-2 melanoma = test system: SK-MEL-2 melanoma
MOLT-4 leukemia = test system: MOLT-4 leukemia
MDA-MB-435 = test system: MDA-MB-435
786-0 renal = test system: 786-0 renal
SF-295 CNS = test system: SF-295 CNS
SK-MEL-5 melanoma = test system: SK-MEL-5 melanoma
HCC-2998 colon = test system: HCC-2998 colon
K-562 leukemia = test system: K-562 leukemia
SF-539 CNS = test system: SF-539 CNS
LOX IMVI melanoma = test system: LOX IMVI melanoma

`CCOC(=O)N1N=C(/C(C)=N/OC)C(C)S1=O` (stereo not given) showed a TGI (NCI-H226 lung) of over 100 µM, a TGI (CCRF-CEM leukemia) of over 100 µM and a TGI (A498 renal) of over 100 µM. It also gave a TGI (SNB-75 CNS) of over 100 µM, a TGI (PC-3 prostate) of over 100 µM and a TGI (SN12C renal) of over 100 µM. For the same compound, the TGI (SR leukemia) was over 100 µM, the TGI (KM12 colon) was over 100 µM and the TGI (SW-620 colon) was over 100 µM. The TGI (EKVX NSCLC) was over 100 µM, the TGI (RXF 393 renal) was over 100 µM and the TGI (MALME-3M melanoma) was over 100 µM. For the same compound, the TGI (HOP-92 NSCLC) was over 100 µM, the TGI (HCT-116 colon) was over 100 µM and the TGI (NCI-H23 lung) was over 100 µM. The TGI (CAKI-1 renal) was over 100 µM, the TGI (BT-549 breast) was over 100 µM and the TGI (OVCAR-8 ovarian) was over 100 µM. It also gave a TGI (DU-145 prostate) of over 100 µM, a TGI (OVCAR-4 ovarian) of over 100 µM and a TGI (MDA-MB-231 breast) of over 100 µM. The TGI (HL-60(TB) leukemia) was over 100 µM, the TGI (M14 melanoma) was over 100 µM and the TGI (T-47D breast) was over 100 µM. It also gave a TGI (HT29 colon) of over 100 µM, a TGI (TK-10 renal) of over 100 µM and a TGI (ACHN renal) of over 100 µM. For the same compound, the TGI (IGROV1 ovarian) was over 100 µM, the TGI (NCI/ADR-RES ovarian) was over 100 µM and the TGI (A549 NSCLC) was over 100 µM. The TGI (RPMI-8226 leukemia) was over 100 µM, the TGI (SNB-19 CNS) was over 100 µM and the TGI (NCI-H522 lung) was over 100 µM. The TGI (HOP-62 NSCLC) was over 100 µM, the TGI (SK-MEL-28 melanoma) was over 100 µM and the TGI (OVCAR-3 ovarian) was over 100 µM. It also gave a TGI (NCI-H460 lung) of over 100 µM, a TGI (MDA-N) of over 100 µM and a TGI (COLO 205 colon) of over 100 µM. The TGI (HCT-15 colon) was over 100 µM, the TGI (HS 578T breast) was over 100 µM and the TGI (UO-31 renal) was over 100 µM. For the same compound, the TGI (SK-OV-3 ovarian) was over 100 µM, the TGI (OVCAR-5 ovarian) was over 100 µM and the TGI (UACC-257 melanoma) was over 100 µM. The TGI (MCF7 breast) was over 100 µM, the TGI (SF-268 CNS) was over 100 µM and the TGI (U251 CNS) was over 100 µM. It also gave a TGI (UACC-62 melanoma) of over 100 µM, a TGI (SK-MEL-2 melanoma) of over 100 µM and a TGI (MOLT-4 leukemia) of over 100 µM. The TGI (MDA-MB-435) was over 100 µM, the TGI (786-0 renal) was over 100 µM and the TGI (SF-295 CNS) was over 100 µM. The TGI (SK-MEL-5 melanoma) was over 100 µM, the TGI (HCC-2998 colon) was over 100 µM and the TGI (K-562 leukemia) was over 100 µM. It also gave a TGI (SF-539 CNS) of over 100 µM.

With `CC1(C)OCC([C@H]2O[C@@H](CC(=S)NCCCCCCCCCCCCNC(=S)C[C@H]3O[C@@H](C4COC(C)(C)O4)[C@H]4OC(C)(C)O[C@H]43)[C@H]3OC(C)(C)O[C@H]32)O1` (stereo not given in full) the TGI (LOX IMVI melanoma) was over 100 µM, the TGI (NCI-H226 lung) was over 100 µM and the TGI (A498 renal) was over 100 µM. It also gave a TGI (SNB-75 CNS) of over 100 µM, a TGI (PC-3 prostate) of over 100 µM and a TGI (SR leukemia) of over 100 µM. It also gave a TGI (KM12 colon) of over 100 µM, a TGI (SW-620 colon) of over 100 µM and a TGI (EKVX NSCLC) of over 100 µM. The TGI (RXF 393 renal) was over 100 µM, the TGI (HOP-92 NSCLC) was over 100 µM and the TGI (HCT-116 colon) was over 100 µM. The TGI (NCI-H23 lung) was over 100 µM, the TGI (CAKI-1 renal) was over 100 µM and the TGI (BT-549 breast) was over 100 µM. For the same compound, the TGI (OVCAR-8 ovarian) was over 100 µM, the TGI (DU-145 prostate) was over 100 µM and the TGI (OVCAR-4 ovarian) was over 100 µM. The TGI (MDA-MB-231 breast) was over 100 µM, the TGI (HL-60(TB) leukemia) was over 100 µM and the TGI (M14 melanoma) was over 100 µM. It also gave a TGI (T-47D breast) of over 100 µM, a TGI (HT29 colon) of over 100 µM and a TGI (TK-10 renal) of over 100 µM. For the same compound, the TGI (ACHN renal) was over 100 µM, the TGI (IGROV1 ovarian) was over 100 µM and the TGI (NCI/ADR-RES ovarian) was 94.2 µM. For the same compound, the TGI (A549 NSCLC) was over 100 µM, the TGI (RPMI-8226 leukemia) was 68.8 µM and the TGI (NCI-H522 lung) was over 100 µM. It also gave a TGI (HOP-62 NSCLC) of over 100 µM, a TGI (SK-MEL-28 melanoma) of over 100 µM and a TGI (OVCAR-3 ovarian) of over 100 µM. For the same compound, the TGI (NCI-H460 lung) was over 100 µM, the TGI (MDA-N) was over 100 µM and the TGI (HCT-15 colon) was over 100 µM. It also gave a TGI (HS 578T breast) of over 100 µM, a TGI (UO-31 renal) of 95 µM and a TGI (OVCAR-5 ovarian) of over 100 µM. It also gave a TGI (UACC-257 melanoma) of over 100 µM, a TGI (MCF7 breast) of over 100 µM and a TGI (SF-268 CNS) of over 100 µM. It also gave a TGI (U251 CNS) of over 100 µM, a TGI (SK-MEL-2 melanoma) of over 100 µM and a TGI (MOLT-4 leukemia) of 80.2 µM. It also gave a TGI (MDA-MB-435) of over 100 µM, a TGI (786-0 renal) of over 100 µM and a TGI (SF-295 CNS) of over 100 µM. It also gave a TGI (SK-MEL-5 melanoma) of 92.4 µM, a TGI (HCC-2998 colon) of over 100 µM and a TGI (K-562 leukemia) of over 100 µM. The TGI (SF-539 CNS) was over 100 µM.
